The nature of series [1]: Subchronic OEA in high-fat-fed obese wild-type and PPARα null mice. To be noted: 4 weeks; for hypercholesterolemia (serum cholesterol): 5 mg-kg^−1 once daily i.p. The series is classed as in vivo, mouse. How it is done:
Subchronic experiments. Male wild-type and PPARα null mice were fed with a very high-fat diet (60 kcal % fat; D12492; Research Diets, NJ). […] The mice were divided into 4 groups (n=7-8 each), and treated them for 4 additional weeks with vehicle (saline/polyethylene glycol/Tween 80, 90/5/5; 1 ml-kg^−1) Or OEA (5 mg-kg^−1, once daily, i.p.). In a separate experiment, obese Zucker rats were treated for 2 weeks with vehicle or OEA (5 mg-kg^−1, once daily, i.p.), while maintaining them on a regular rodent chow (RMH 2500, Prolab). Food intake and body weight were measured daily. At the end of the experiments, the animals were fasted overnight, and tissues and blood samples collected for biochemical analyses.
Lipids were extracted from mouse liver and epidydimal adipose tissue (Bligh and Dyer, 1959) and measured triglycerides with a commercial kit (Sigma). Serum lipids and glucose were measured with an automated Synchron LX® system (Beckman-Coulter).

Series [2] is described as follows: Operant responses for food. The class given is in vivo, rat. To be noted: at a dose substantially higher than those required to produce hypophagia. An excerpt: Operant responses for food. Rats were trained to lever press for food on a fixed ratio 1 (FR1) schedule of reinforcement, while food-restricted at 20 g of chow per rat per day (Rodriguez de Fonseca, et al., Acta Pharmacol. Sin., 20:1109-1114 (1999)). Once stable responding was achieved, the animals were trained to acquire an FR5, time out 2-min schedule of food reinforcement and kept in limited access to food. When a stable baseline was obtained, the animals were used to test the effects of vehicle or OEA (1, 5 or 20 mg per kg) administered 15 min before lever presentation. Test duration was 60 min.

A short description of series [3]: Subchronic OEA administration in rats (7 days): food intake, body weight, water intake. The class given is in vivo, rat. To be noted: 5 mg per kg i.p. daily for seven days. How it is done:
Feeding experiments. Acute experiments. Food intake was measured in 24-h food-deprived rats (Navarro, et al., J. Neurochem., 67:1982-1991 (1996)), administering drugs 15 min before food presentation. Subchronic experiments. Ad libitum fed rats received vehicle injections for three days. On day four, the animals were divided in two equal groups and gave them daily injections of vehicle or OEA (5 mg per kg at 1900 h) for 7 consecutive days, while measuring body weight, food intake and water intake.
In this example, OEA was subchronically administered to rats.

[4] abbreviates: obese wild-type mice, 5 mg-kg^−1 i.p. daily.

Here are results for one molecule from US20050101542A1, “Combination therapy for controlling appetites” (Regents of the University of California, priority 2002, published 2005).

Molecules are shown by their SMILES.

As for `CCCCCCCC/C=C\CCCCCCCC(=O)NCCO` [OEA, Z-2-hydroxyethyl octadec-9-enamide], the “hypercholesterolemia (serum cholesterol)” value in series [1] (high fat-fed PPARα-null mice) is reported as “ineffective”. The “hypercholesterolemia (serum cholesterol)” value in series [1] (high fat-fed wild-type mice) is listed as “partially corrected”. Further, the “cumulative food intake and body-weight gain” value in series [1] (obese PPARα deficient mice, 5 mg-kg^−1 i.p. daily) is given as “no such effect”. In addition, in series [1] (setting [4]), the body-weight gain result is recorded as “suppressed” and the “cumulative food intake (normalized for body mass)” value is recorded as “significantly reduced”. In addition, in series [2], the “operant responses for food” value is reported as “reduced”. Also, in series [3], the cumulative food intake result is “small, but significant decrease”; the water intake result was “did not affect”; the weight gain entry is recorded as “profound inhibition of weight gain”.
